Experimental data: patent publication EP1306084A1, “Compositions for the control of parasitic infestations in fish” (Alpharma AS, priority 1998, dated 1999)

Key:
sea lice [1] = test: Oral hexaflumuron treatment of naturally sea lice infected salmon in sea cages (Example 1); assay type: in vivo, Atlantic salmon (Salmo salar); details: 9 mg per kg each day for 10 days
Description: The treatment dosage was 9 mg hexaflumuron per kg fish per day for 10 days. This is indicated by "Groups/Timepoints" in the figure; • Figure 2 relates to the trial in Example 2 that was carried out on Atlantic salmon (Salmo salar). […] The treatment dosage varied between 3 - 9 mg hexaflumuron and 9- 12 mg fluazuron per kg fish per day for 7 days. This is indicated by "Groups/Timepoints" in the diagram. […] The treated groups are compared to an untreated control group. The treatment dosage was 4 mg hexaflumuron per kg fish per day for 5 days. This is indicated by "Groups/Timepoints" in the figure. Cage 2 = controls, Cage 4-6 = treated groups, 16.6.97 = time point for sea transfer and 5.8.97= controls treated by bathing with deltamethrin; • Figure 4 relates to the trial described in Example 5, which was carried out on sea trout (Salmo trutta). […] The treated groups are compared with an untreated control group. The dosage for oral treatment was 4 mg hexaflumuron per kilo fish per day for 5 days, and 5 ppm hexaflumuron as a 30 minute bath treatment. This is indicated by "Groups/Timepoints" in the figure. Cage 1.4 = Controls, cage 1.3 = Oral treatment, cage 1.2 = Bath treatment. […] The treated groups are compared with an untreated control group, and one group that has been treated orally with teflubenzuron (10 mg/kg of teflubenzuron per kg fish per day for 7 days). […]

Anilocra physodes = test: Oral hexaflumuron against infestation with a parasitic isopod (Example 9); assay type: in vivo, Sea bass (Dicentrarchus labrax)
Description: In this trial, hexaflumuron was administered orally in order to test the effect against infestations with the parasitic isopod Anilocra physodes in Sea bass (Dicentrarchus labrax).
150,000 Sea bass (Dicentrarchus labrax) having an average weight of 2 grams were transferred from a hatchery facility and distributed into 5 cages each containing 30,000 fish. The trial was carried out in a food fish facility in the Mediterranean where the sea water temperature varied in the range of 15.0-25.0°C throughout the trial period.
Fish in four cages were fed medicated feed at an amount corresponding to 0.5% of the total biomass per day for 6 days, corresponding to 10 mg hexaflumuron/kg fish per day. One week after the medication and subsequently every three weeks the number of parasites on the fish was monitored.

[2] = Field trial: weight and length of recaptured tagged fish (Example 3); assay type: in vivo, wild sea trout (Salmo trutta); details: treated fish caught June 20 to August 7
Description: About 2,000 wild sea trout (Salmo trutta) were divided into two groups and marked with Carlin tags in two different colours (yellow or red) so that individuals of the groups could easily be distinguished from each other when observed in the water. The group with yellow Carlin tags were given feed containing hexaflumuron. The dose was about 3 mg of hexaflumuron per fish per day for six days. The feeding was done the last week before they were transferred to the sea in the beginning of May. The control group had red Carlin tags and was fed ordinary fish feed until sea transfer. Both groups of fish were transferred to the sea 200 metres from the river mouth of the Bondhus River in Hordaland in Norway. From sea transfer (May 8) until August 7, neighbouring rivers and estuaries round these rivers were examined every week, using fishing by application of high voltage and net fishing.
The following average lengths and weights were recorded for the fish that were caught during the period: • Control fish: Average weight 50.4 ± 48.8 grams. Average length 19.7 ± 13.3 cm. • Treated fish: Average weight 87.1 ± 69.6 grams. Average length 35.9 ± 19.1 cm.

sea lice [3] = test: Oral or bath treatment in freshwater before sea transfer, sea lice counts after natural infestation (Example 6); assay type: in vivo, Atlantic salmon (Salmo salar)
Description: The treatment dosage was 9 mg hexaflumuron per kg fish per day for 10 days. This is indicated by "Groups/Timepoints" in the figure; • Figure 2 relates to the trial in Example 2 that was carried out on Atlantic salmon (Salmo salar). […] The treatment dosage varied between 3 - 9 mg hexaflumuron and 9- 12 mg fluazuron per kg fish per day for 7 days. This is indicated by "Groups/Timepoints" in the diagram. […] The treated groups are compared to an untreated control group. The treatment dosage was 4 mg hexaflumuron per kg fish per day for 5 days. This is indicated by "Groups/Timepoints" in the figure. Cage 2 = controls, Cage 4-6 = treated groups, 16.6.97 = time point for sea transfer and 5.8.97= controls treated by bathing with deltamethrin; • Figure 4 relates to the trial described in Example 5, which was carried out on sea trout (Salmo trutta). […] The treated groups are compared with an untreated control group. The dosage for oral treatment was 4 mg hexaflumuron per kilo fish per day for 5 days, and 5 ppm hexaflumuron as a 30 minute bath treatment. This is indicated by "Groups/Timepoints" in the figure. Cage 1.4 = Controls, cage 1.3 = Oral treatment, cage 1.2 = Bath treatment. […] The treated groups are compared with an untreated control group, and one group that has been treated orally with teflubenzuron (10 mg/kg of teflubenzuron per kg fish per day for 7 days). The dosage for oral treatment was 5.6 mg hexaflumuron per kg fish per day for 7 days, and 5 ppm hexaflumuron as a 30 minute bath treatment. […] End of treatment: 22.10.97, Sea transfer: 23.10.97. T1 = 3 weeks post end of treatment, T2 = 5 weeks post end of treatment, T3 = 9 weeks post end of treatment, T4 = 12 weeks post end of treatment; • Figure 6 relates to the trial in Example 6 at time points 4-6, with the same trial parameters as for Figure 5. T5 = 15 weeks post end of treatment, T6 = 17 weeks post end of treatment. Cage 3 and 4 were treated by bath with deltamethrin after sea lice counting at T4 (12.01.98); • Figure 7 relates to the trial described in Example 7 where salmon were injected on 17.12.97 with two formulations (groups L and R, respectively) of hexaflumuron and a vaccine formulation without hexaflumuron (control). […] The vaccinated fish was transferred to sea water on 09.01.98; • Figure 8 summarises the trial of Example 8 where salmon smolts were injected with 9 different active substances on 08.07.98. Only results for Moxidectin (Mox.), Lufenuron (Luf.) and hexaflumuron in Apoject 1-Fural (Hex.Apo) and in animal oil (Hex.oil) are shown, and • Figure 9 summarises the trial described in Example 10 where salmon were injected on 03.12.97 with 3 different formulations of hexaflumuron (Hexa 1, Hexa 2 and Hexa 3). The fish were transferred to sea water at T0.
About 400 Atlantic salmon (Salmo salar) of an average weight of 80 grams were divided into four groups of 100 fish in each. One group was given an oral treatment of 5.6 mg hexaflumuron per kg fish each day for 7 days before sea transfer. Group two was given a bath treatment with a dosage of 5 ppm (mg/l) hexaflumuron for 30 minutes with a formulation containing 10% hexaflumuron. Group three was given oral treatment with a daily dosage of 10 mg teflubenzuron per kg fish for 7 days, while the last group remained untreated. […] Every third week, lice from 10 fish in each cage were counted to assess if there was a difference in the number of lice between the cages. […]

With `O=C(NC(=O)c1c(F)cccc1F)Nc1cc(Cl)c(OC(F)(F)C(F)F)c(Cl)c1` [hexaflumuron] the “reduction of sensitive chalimus and pre-adult stages” value (sea lice [1]) was “about 95%”, the “reduced the number of lice as compared to the control group” value (sea lice [1]; medicated pellets, 7.6 - 9.4°C) was “more than 90%” and the “parasites found in the treated groups” value (Anilocra physodes; one week after the medication period (10 mg/kg fish per day, 6 days), control 0.1 louse) was “no parasites were found”. The “period of effect against Anilocra physodes after medication” value (Anilocra physodes; oral 10 mg/kg fish per day for 6 days) was “about 3 weeks”, the “average parasites in the treated groups” value (Anilocra physodes; three weeks after the medication period, control 0.4 louse) was 0.15 louse and the Average length ([2]; control fish 19.7 ± 13.3) was 35.9 ± 19.1 cm. The Average weight ([2]; control fish 50.4 ± 48.8) was 87.1 ± 69.6 grams, the protection period (sea lice [3]; hexaflumuron oral or bath before sea transfer) was “at least 11 weeks” and the “number of lice larger than Chalimus II versus control” value (sea lice [3]; oral 5.6 mg per kg each day for 7 days or bath 5 ppm for 30 minutes, 5, 8 and 11 weeks (time points 2, 3 and 4)) was “significantly lower”.
